pIC50: −log10 of the molar value.
Columns and labels:
[1] = Intrinsic clearance in human liver microsome at 1 uM incubated for 30 mins in presence of NADPH by LC-MS/MS analysis; format: ADME, microsomes; conditions: for microsomal CLint at 1 µM: liver microsomes, read-out: CLH
[2] = target: E3 ubiquitin-protein ligase CBL-B (Homo sapiens, UniProt Q13191); test: Inhibition of Cbl-b (unknown origin) by TR-FRET assay
[3] = Lipophilicity, logD of compound in octanol/aqueous buffer at pH 7.4 incubated for 2 hrs by shake flask method; format: physicochemical; conditions: for logD at 2 h: octanol/aqueous buffer, pH 7.4

Sequence of E3 ubiquitin-protein ligase CBL-B (Q13191 whole entry): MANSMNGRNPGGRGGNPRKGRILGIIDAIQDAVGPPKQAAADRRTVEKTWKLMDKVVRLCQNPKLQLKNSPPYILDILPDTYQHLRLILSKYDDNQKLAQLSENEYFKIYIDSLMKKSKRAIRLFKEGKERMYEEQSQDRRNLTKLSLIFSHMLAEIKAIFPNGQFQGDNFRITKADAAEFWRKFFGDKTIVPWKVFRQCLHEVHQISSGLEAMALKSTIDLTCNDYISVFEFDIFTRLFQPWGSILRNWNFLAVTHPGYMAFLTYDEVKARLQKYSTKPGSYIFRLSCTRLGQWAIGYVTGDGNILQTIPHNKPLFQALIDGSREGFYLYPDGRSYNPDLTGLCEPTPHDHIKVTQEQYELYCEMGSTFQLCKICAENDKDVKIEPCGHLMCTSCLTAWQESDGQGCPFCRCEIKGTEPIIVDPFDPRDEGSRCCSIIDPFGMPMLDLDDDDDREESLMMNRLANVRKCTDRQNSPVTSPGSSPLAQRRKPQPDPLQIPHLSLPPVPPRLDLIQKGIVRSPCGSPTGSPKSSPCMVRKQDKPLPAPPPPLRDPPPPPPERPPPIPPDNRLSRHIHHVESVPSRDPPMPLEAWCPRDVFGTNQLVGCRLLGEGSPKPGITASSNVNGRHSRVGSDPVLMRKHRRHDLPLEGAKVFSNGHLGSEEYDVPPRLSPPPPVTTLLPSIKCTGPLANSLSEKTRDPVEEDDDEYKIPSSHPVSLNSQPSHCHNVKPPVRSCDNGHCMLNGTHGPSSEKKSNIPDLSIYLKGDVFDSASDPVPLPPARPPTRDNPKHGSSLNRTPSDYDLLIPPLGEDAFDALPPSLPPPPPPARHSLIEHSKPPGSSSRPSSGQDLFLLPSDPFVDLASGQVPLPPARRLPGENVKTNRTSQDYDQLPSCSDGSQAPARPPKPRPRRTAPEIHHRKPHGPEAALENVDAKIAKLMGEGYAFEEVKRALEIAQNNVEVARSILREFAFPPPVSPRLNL

microsomal CLint at 1 µM [1]	pIC50 [2]	logD at 2 h [3]	CLH ([1]; microsomes, 0.5 h, 1 µM)	logD ([3]; octanol/water, pH 7.4, 2 h, 2 h)	SMILES
6.6 µL/min/mg	< 4.00	2.4	–	–	Cc1cc(C(=O)Nc2cccc(C3(C)CCNC(=O)N3)c2)nc(C2CC2)n1 (racemic)
260 µL/min/mg	8.15	3.7	–	–	C[C@H]1CCCN(Cc2cc(C(F)(F)F)c3nn(-c4cccc([C@]5(C6CC6)CCNC(=O)O5)c4)c(=O)n3c2)C1
> 300 µL/min/mg	5.11	3.8	–	–	C[C@H]1CCCN(Cc2cc(C(F)(F)F)c3nn(-c4cccc([C@@]5(C6CC6)CCNC(=O)O5)c4)c(=O)n3c2)C1
48 µL/min/mg	6.64	2.7	–	–	Cn1cnnc1[C@]1(c2cccc(-n3nc4c(C(F)(F)F)cccn4c3=O)c2)C[C@H](C)C1
7.7 µL/min/mg	< 4.00	2.4	–	–	Cc1cc(C(=O)Nc2cccc([C@@]3(C)CCNC(=O)O3)c2)nc(C2CC2)n1
35 µL/min/mg	5.09	2.1	–	–	O=C1NCC[C@@](c2cccc(-c3cc(C(F)(F)F)c[nH]c3=O)c2)(C2CC2)O1
–	< 4.00	–	10 µL/min/mg	2.6	Cc1cc(C(=O)Nc2cccc(C3(C)CNC(=O)O3)c2)nc(C2CC2)n1 (single isomer, unassigned; 15)
25 µL/min/mg	6.77	3	–	–	Cc1cc(C(=O)Nc2cccc([C@]3(C4CC4)CCNC(=O)O3)c2)nc(C2CC2)n1
61 µL/min/mg	< 4.00	3	–	–	Cc1cc(C(=O)Nc2cccc([C@@]3(C4CC4)CCNC(=O)O3)c2)nc(C2CC2)n1
170 µL/min/mg	5.92	3.5	–	–	C[C@H]1CCCN(Cc2cc(C(F)(F)F)c3nn(-c4cccc([C@]5(C)CCNC(=O)C5)c4)c(=O)n3c2)C1
230 µL/min/mg	4.43	3.4	–	–	C[C@H]1CCCN(Cc2cc(C(F)(F)F)c3nn(-c4cccc([C@@]5(C)CCNC(=O)C5)c4)c(=O)n3c2)C1
130 µL/min/mg	–	4	–	–	C[C@H]1CCCN(Cc2cc3c(c(C(F)(F)F)c2)CN(c2cccc([C@]4(c5nncn5C)C[C@@H](C)C4)c2)C3=O)C1
27 µL/min/mg	5.85	3	–	–	CC[C@@]1(c2cccc(NC(=O)c3cc(C)nc(C4CC4)n3)c2)CCNC(=O)O1
160 µL/min/mg	7.96	3.9	–	–	C[C@H]1CCCN(Cc2cc(C(F)(F)F)c3nn(-c4cccc([C@]5(c6nncn6C)C[C@@H](C)C5)c4)c(=O)n3c2)C1
75 µL/min/mg	< 4.00	2.7	–	–	Cc1cc(C(=O)Nc2cccc(C3(C)CCNC(=O)N3C)c2)nc(C2CC2)n1 (racemic)
5.9 µL/min/mg	5.32	2.5	–	–	Cc1cc(C(=O)Nc2cccc([C@]3(C)CCNC(=O)O3)c2)nc(C2CC2)n1
> 300 µL/min/mg	< 5.00	5.3	–	–	CC1CC(c2cccc(-n3nc4c(C(F)(F)F)cc(CN5CCC[C@H](C)C5)cn4c3=O)c2)(n2cccn2)C1 (some centres not stated)
18 µL/min/mg	7.04	2.2	–	–	O=C1NCC[C@](c2cccc(-c3cc(C(F)(F)F)c[nH]c3=O)c2)(C2CC2)O1
16 µL/min/mg	< 4.00	2.7	–	–	Cc1cc(C(=O)Nc2cccc(C3(C)CNC(=O)O3)c2)nc(C2CC2)n1 (single isomer, unassigned; 14)
> 300 µL/min/mg	5.18	3.2	–	–	C[C@H]1CCCN(Cc2cc(C(F)(F)F)c3nn(-c4cccc(C5(C)CC(=O)NC(=O)C5)c4)c(=O)n3c2)C1
54 µL/min/mg	< 4.00	2.9	–	–	CC[C@]1(c2cccc(NC(=O)c3cc(C)nc(C4CC4)n3)c2)CCNC(=O)O1
> 300 µL/min/mg	5.19	4.3	–	–	CNC(=O)[C@]1(c2cccc(-n3nc4c(C(F)(F)F)cc(CN5CCC[C@H](C)C5)cn4c3=O)c2)C[C@H](C)C1
35 µL/min/mg	6.80	3.2	–	–	Cc1cc(C(=O)Nc2cccc([C@]3(c4nncn4C)C[C@@H](C)C3)c2)nc(C2CC2)n1
> 300 µL/min/mg	5.68	4.9	–	–	C[C@H]1CCCN(Cc2cc(C(F)(F)F)c3nn(-c4cccc([C@]5(C(=O)N(C)C)C[C@@H](C)C5)c4)c(=O)n3c2)C1

SMILES	microsomal CLint at 1 µM [1]	pIC50 [2]	logD at 2 h [3]	CLH ([1]; microsomes, 0.5 h, 1 µM)	logD ([3]; octanol/water, pH 7.4, 2 h, 2 h)
Cc1cc(C(=O)Nc2cccc([C@@]3(C)CCNC(=O)C3)c2)nc(C2CC2)n1	23 µL/min/mg	4.48	2.7	–	–
Cc1cc(C(=O)Nc2cccc([C@]3(C)CCNC(=O)C3)c2)nc(C2CC2)n1	34 µL/min/mg	4.55	2.7	–	–
